In ChEMBL document CHEMBL1955772, “Cytotoxic terpenoids from Juglans sinensis leaves and twigs” (Bioorg Med Chem Lett, 2012):

What was measured:
[1] = Cytotoxicity against human U87MG cells after 24 hrs by MTS assay; assay type: functional, cell-based, U-87MG ATCC; conditions: U-87 MG
B16-F10 = assay: Cytotoxicity against mouse B16F10 cells after 24 hrs by MTS assay; assay type: functional, cell-based; conditions: B16-F10, 24 h
MCF7 = assay: Cytotoxicity against human MCF7 cells after 24 hrs by MTS assay; assay type: functional, cell-based; conditions: MCF7, 24 h
HEp-2 = assay: Cytotoxicity against human Hep2 cells after 24 hrs by MTS assay; assay type: functional, cell-based; conditions: HEp-2, 24 h

Row | Structure (SMILES) | IC50 [1] | IC50 (B16-F10) | IC50 (MCF7) | IC50 (HEp-2)
1 | CC(C)(O)[C@@H]1C[C@H]2[C@@](C)(C[C@@H]3C[C@@]32C)C[C@@H]1O | 1.13 µM | > 10 µM | 1.81 µM | 4.22 µM
2 | C[C@H]1[C@H](C)CC[C@]2(C(=O)O[C@@H]3O[C@H](CO)[C@@H](O)[C@H](O)[C@H]3O)CC[C@]3(C)C(=CC[C@@H]4[C@@]5(C)C[C@@H](O)[C@@H](O)[C@@](C)(CO)[C@@H]5CC[C@]43C)[C@H]12 | > 10 µM | > 10 µM | > 10 µM | > 10 µM
3 | CC(C)(O)[C@@H]1C[C@H]2[C@@](C)(C[C@@H]3C[C@@]32C)C[C@H]1O (relative stereo) | > 10 µM | > 10 µM | > 10 µM | > 10 µM
4 | CC(C)(O[C@@H]1O[C@H](CO)[C@@H](O)[C@H](O)[C@H]1O)[C@@H]1CC[C@@]2(C)CCC=C(CO)[C@@H]2C1 | > 10 µM | > 10 µM | > 10 µM | > 10 µM
5 | CC1(C)C=C2[C@H]3CC[C@@H]4[C@@]5(C)[C@@H](O)C[C@H](O)C(C)(C)[C@@H]5CC[C@@]4(C)[C@]3(C)CC[C@@]2(C)CC1 (relative stereo) | 1.31 µM | 0.3 µM | 3.86 µM | 5.4 µM
6 | CO[C@@H]1O[C@@]2(CO)CC[C@@]13CC[C@]1(C)[C@H](C[C@@H](O)[C@@H]4[C@@]5(C)CC[C@H](O)[C@](C)(CO)[C@@H]5CC[C@]41C)[C@@H]3[C@]2(C)O (relative stereo) | 3.29 µM | 1.53 µM | 1.25 µM | 5.52 µM
7 | CC(C)(O)[C@@H]1C[C@H]2[C@](C)(CC1=O)C[C@@H]1C[C@@]12C | 1.16 µM | 0.3 µM | 4.11 µM | 5.25 µM
